# Experimental data from US6921770B2 (priority 2000, dated 2005).
# Test system: rice blast fungi
# Assay type: in vivo, Pyricularia grisea
# Conditions: not given
row,SMILES,Inhibiting Ratio (%) (at 250 ppm)
1,"Br.Cn1c(CC(=O)Nc2cccc(Cl)c2)csc1=Nc1ccc(C#N)cc1 [Compound 57, 2-(4-cyanophenylimino)-3-methyl-4-[N-(3-chlorophenyl)carbamoylmethyl]-1,3-thiazol-4-ine hydrobromide]",96
2,"Br.Cn1c(CC(=O)Nc2cccc(Cl)c2)csc1=Nc1ccc(OC(F)(F)F)cc1 [Compound 58, 2-(4-trifluoromethoxyphenylimino)-3-methyl-4-[N-(3-chlorophenyl)carbamoylmethyl]-1,3-thiazol-4-ine hydrobromide]",96
3,"Br.Cn1c(CC(=O)Nc2cccc(Cl)c2)csc1=Nc1cccc(F)c1 [Compound 59, 2-(3-fluorophenylimino)-3-methyl-4-[N-(3-chlorophenyl)carbamoylmethyl]-1,3-thiazoyl-4-ine hydrobromide]",96
4,"Br.Cc1ccc(N=c2scc(CC(=O)Nc3cccc(Cl)c3)n2C)cc1Cl [Compound 62, 2-(3-chloro-4-methylphenylimino)-3-methyl-4-[N-(3-chlorophenyl)carbamoylmethyl]-1,3-thiazol-4-ine hydrobromide]",100
5,"Br.COc1ccccc1N=c1scc(CC(=O)Nc2cccc(C(F)(F)F)c2)n1C [Compound 65, 2-(2-methoxyphenylimino)-3-methyl-4-[N-(3-trifluoromethylphenyl)carbamoylmethyl]-1,3-thiazol-4-ine hydrobromide]",98
6,"Br.Cn1c(CC(=O)Nc2cccc(Cl)c2)csc1=Nc1ccc(Cl)cc1F [Compound 66, 2-(4-chloro-2-fluorophenylimino)-3-methyl-4-[N-(3-chlorophenyl)carbamoylmethyl]-1,3-thiazol-4-ine hydrobromide]",96
7,"Br.Cc1ccc(N=c2scc(CC(=O)Nc3cccc(Cl)c3)n2C)c(F)c1 [Compound 67, 2-(2-fluoro-4-methylphenylimino)-3-methyl-4-[N-(3-chlorophenyl)carbamoylmethyl]-1,3-thiazol-4-ine hydrobromide]",100
8,"Br.Cn1c(CC(=O)Nc2cccc(Cl)c2)csc1=Nc1ccc(F)cc1F [Compound 68, 2-(2,4-difluorophenylimino)-3-methyl-4-[N-(3-chlorophenyl)carbamoylmethyl]-1,3-thiazol-4-ine hydrobromide]",95
9,"Br.CC(C)Oc1cc(N=c2scc(CC(=O)Nc3ccccc3)n2C)c(F)cc1Cl [Compound 69, 2-(4-chloro-2-fluoro-5-isoproxyphenylimino)-3-methyl-4-(N-phenylcarbamoylmethyl)-1,3-thiazol-4-ine hydrobromide]",96
10,"Br.CC(C)=CCOc1cc(N=c2scc(CC(=O)Nc3ccccc3)n2C)c(F)cc1Cl [Compound 70, 2-(4-chloro-2-fluoro-5-(3,3,-dimethylallyloxy)phenylimino)-3-methyl-4-(N-phenylcarbamoylmethyl)-1,3-thiazol-4-ine hydrobromide]",96
11,"COc1ccc(N=c2scc(CC(=O)Nc3ccccc3F)n2C)cc1.Cl [Compound 78, 2-(4-methoxyphenylimino)-3-methyl-4-[N-(2-fluorophenyl)carbamoylmethyl]-1,3-thiazol-4-ine hydrochloride]",91
12,"Cl.Cn1c(CC(=O)Nc2ccccc2F)csc1=Nc1ccc(OC(F)(F)F)cc1 [Compound 79, 2-(4-trifluoromethoxyphenylimino)-3-methyl-4-[N-(2-fluorophenyl)carbamoylmethyl]-1,3-thiazol-4-ine hydrochloride]",90
13,"Cl.Cn1c(CC(=O)Nc2ccccc2F)csc1=Nc1ccccc1F [Compound 89, 2-(2-fluorophenylimino)-3-methyl-4-[N-(2-fluorophenyl)carbamoylmethyl]-1,3-thiazol-4-ine hydrochloride]",83
14,"Cl.Cn1c(CC(=O)Nc2ccccc2F)csc1=Nc1cccc(Cl)c1 [Compound 90, 2-(3-chlorophenylimino)-3-methyl-4-[N-(2-fluoro)phenylcarbamoylmethyl]-1,3-thiazol-4-ine hydrochloride]",91
15,"Cl.Cn1c(CC(=O)Nc2ccc(Cl)cc2)csc1=Nc1ccc(C(F)(F)F)cc1 [Compound 98, 2-(4-trifluoromethylphenylimino)-3-methyl-4-[N-(4-chlorophenyl)carbamoylmethyl]-1,3-thiazol-4-ine hydrochloride]",96
16,"COc1ccc(NC(=O)Cc2csc(=Nc3cc(Cl)cc(Cl)c3)n2C)cc1.Cl [Compound 102, 2-(3,5-dichlorophenylimino)-3-methyl-4-[N-(4-methoxyphenyl)carbamoylmethyl]-1,3-thiazol-4-ine hydrochloride]",93

row,SMILES,Inhibiting Ratio (%) (at 250 ppm)
1,"COc1ccc(NC(=O)Cc2csc(=Nc3ccc(Cl)cc3)n2C)cc1.Cl [Compound 104, 2-(4-chlorophenylimino)-3-methyl-4-[N-(4-methoxyphenyl)carbamoylmethyl]-1,3-thiazol-4-ine hydrochloride]",93
2,"CC(C)Oc1ccc(N=c2scc(CC(=O)Nc3ccccc3F)n2C)cc1.Cl [Compound 105, 2-(4-isopropoxyphenylimino)-3-methyl-4-[N-(2-fluorophenyl)carbamoylmethyl]-1,3-thiazol-4-ine hydrochloride]",90
3,"Cl.Cn1c(CC(=O)Nc2ccc(OC(F)(F)F)cc2)csc1=Nc1ccc(OC(F)(F)F)cc1 [Compound 108, 2-(4-trifluoromethoxyphenylimino)-3-methyl-4-[N-(4-trifluoromethoxyphenyl)carbamoylmethyl]-1,3-thiazol-4-ine hydrochloride]",91
4,"COc1ccc(N=c2scc(CC(=O)Nc3ccc(Cl)cc3)n2C)cc1.Cl [Compound 118, 2-(4-methoxyphenylimino)-3-methyl-4-[N-(4-chlorophenyl)carbamoylmethyl]-1,3-thiazol-4-ine hydrochloride]",99
5,"CCCCc1ccc(N=c2scc(CC(=O)Nc3ccc(Cl)cc3)n2C)cc1.Cl [Compound 124, 2-[4-(n-butyl)phenylimino]-3-methyl-4-[N-(4-chlorophenyl)carbamoylmethyl]-1,3-thiazol-4-ine hydrochloride]",93
6,"Cl.Cn1c(CC(=O)Nc2ccc(Cl)cc2)csc1=Nc1cccc(F)c1 [Compound 129, 2-(3-fluorophenylimino)-3-methyl-4-[N-(4-chlorophenyl)carbamoylmethyl]-1,3-thiazol-4-ine hydrochloride]",96
7,"Cl.Cn1c(CC(=O)Nc2ccc(Cl)cc2)csc1=Nc1ccc(Br)cc1 [Compound 130, 2-(4-bromophenylimino)-3-methyl-4-[N-(4-chlorophenyl)carbamoylmethyl]-1,3-thiazol-4-ine hydrochloride]",98
8,"Cl.Cn1c(CC(=O)Nc2ccc(Cl)cc2)csc1=Nc1ccccc1-c1ccccc1 [Compound 131, 2-(2-phenylphenylimino)-3-methyl-4-[N-(4-chlorophenyl)carbamoylmethyl]-1,3-thiazol-4-ine hydrochloride]",96
9,"Cl.Cn1c(CC(=O)Nc2ccc(Br)cc2)csc1=Nc1ccc(C(F)(F)F)cc1 [Compound 132, 2-(4-trifluoromethylphenylimino)-3-methyl-4-[N-(4-bromophenyl)carbamoylmethyl]-1,3-thiazol-4-ine hydrochloride]",99
10,"Cl.Cn1c(CC(=O)Nc2ccc(Br)cc2)csc1=Nc1ccc(F)cc1F [Compound 133, 2-(2,4-difluorophenylimino)-3-methyl-4-[N-(4-bromophenyl)carbamoylmethyl]-1,3-thiazol-4-ine hydrochloride]",99
11,"Cl.Cn1c(CC(=O)Nc2ccc(Br)cc2)csc1=Nc1cccc(Cl)c1F [Compound 134, 2-(3-chloro-2-fluorophenylimino)-3-methyl-4-[N-(4-bromophenyl)carbamoylmethyl]-1,3-thiazol-4-ine hydrochloride]",98
12,"Cc1ccc(N=c2scc(CC(=O)Nc3ccc(Br)cc3)n2C)c(C)c1.Cl [Compound 135, 2-(2,4-dimethylphenylimino)-3-methyl-4-[N-(4-bromophenyl)carbamoylmethyl]-1,3-thiazol-4-ine hydrochloride]",98
13,"Cl.Cn1c(CC(=O)Nc2ccc(Br)cc2)csc1=Nc1ccc(F)cc1 [Compound 136, 2-(4-fluorophenylimino)-3-methyl-4-[N-(4-bromophenyl)carbamoylmethyl]-1,3-thiazol-4-ine hydrochloride]",97
14,"Cl.Cn1c(CC(=O)Nc2ccc(Br)cc2)csc1=Nc1cccc(Br)c1 [Compound 137, 2-(3-bromophenylimino)-3-methyl-4-[N-(4-bromophenyl)carbamoylmethyl]-1,3-thiazol-4-ine hydrochloride]",97
15,"Cl.Cn1c(CC(=O)Nc2ccc(Br)cc2)csc1=Nc1cc(Cl)cc(Cl)c1 [Compound 138, 2-(3,5-dichlorophenylimino)-3-methyl-4-[N-(4-bromophenyl)carbamoylmethyl]-1,3-thiazol-4-ine hydrochloride]",95
16,"Cl.Cn1c(CC(=O)Nc2ccc(Br)cc2)csc1=Nc1ccc(OC(F)(F)F)cc1 [Compound 139, 2-(4-trifluoromethoxyphenylimino)-3-methyl-4-[N-(4-bromophenyl)carbamoylmethyl]-1,3-thiazol-4-ine hydrochloride]",99

# Same assay, conditions: hydrobromide
row,SMILES,Inhibiting Ratio (%) (at 250 ppm)
1,"Br.Cc1cc(Cl)ccc1N=c1scc(CC(=O)Nc2cccc(Cl)c2)n1C [Compound 61, 2-(4-chloro-2-methylphenylimino)-3-methyl-4-[N-(3-chlorophenyl)carbamoylmethyl]-1,3-thiazol-4-ine hydrobromide]",100
2,"Br.Cc1cc(Cl)ccc1N=c1scc(CC(=O)Nc2cccc(Cl)c2)n1C [Compound 63, 2-(4-chloro-2-methylphenylimino)-3-methyl-4-[N-(3-chlorophenyl)carbamoylmethyl]-1,3-thiazol-4-ine hydrobromide]",96
